Tested on: Plasmodium falciparum
Test: Antiplasmodial activity against Plasmodium falciparum 3D7 late ring stages and early trophozoites forms infected in human erythrocytes assessed as parasite growth inhibition by LDH release assay
Format: functional, organism-based

CCCCCCCCCCC/C=C(\C)C(=O)C(C)(C)C(=O)OC[C@@H](O)COCC[C@@H](C(=O)[O-])[N+](C)(C)C
IC50: 7 µM
